Results reported in US12478616B2, “PI3K inhibitors and uses thereof” (Sloan-Kettering Institute for Cancer Research, priority 2018, dated 2025).
Read-outs that look alike come from different tables or passages of the source. Marks after values point to notes of the source that are not given here.

What was measured:
PI3Kα = PI3Kα (Homo sapiens (Human), UniProt P42336); assay: PI3Kα kinase (biochemical) assay
[1] = system: H22 patient-derived xenografts; conditions: Fi(BYL719) 25 mg/kg twice a week; free BYL719 7 mg/kg/day (50 mg/kg/week); cited from earlier work
[2] = rat, BYL719 dose 3.4 mg/kg IV, cited from earlier work
[3] = Fucoidan nanoparticle formulation, drug load and particle size; format: physicochemical; conditions: Table 1
Protocol: FIG. 13. Generation of Compound (14) Nanoparticles [Fi(Compound (14))]. An aliquot of 0.1 mL of Compound (14) dissolved in dimethyl sulfoxide (25 mg/mL) was added drop-wise ([…]) to a 0.6 mL aqueous polysaccharide solution (15 mg/mL) containing IR820 (2.5 mg/mL) and 0.05 mM sodium bicarbonate. An aliquot of 0.1 mL of 8-arm PEG-amine dissolved in water (Creative Peg Works, 20 kD, 5 mg/mL) was added drop-wise to the mixture followed by centrifugation (20,000 g, 30 min). The nanoparticle pellet was re-suspended in 1 mL of sterile PBS. The suspension was sonicated for 10 s with a probe tip ultrasonicator at 40% intensity (Sonics inc). The nanoparticles were lyophilized in a 5% saline/sucrose solution.
Nanoformulated Compound (14) [Fi(Compound (14))] was typically prepared as illustrated in FIG. 13 by adding a DMSO solution dropwise to an aqueous polysaccharide solution containing the near-IR dye IR820. This was followed by the addition of an aqueous solution containing 20 kD, 8-arm PEG-amine, centrifugation and ultra-sonication yielding nanoparticles (<200 nm) with good batch consistency (FIG. 14). […]
Importantly, each of these 3 new derivatives shown in Table 8 were successfully encapsulated in fucoidan polysaccharide nanoparticles. Following nanoformulation, the drug loading in the nanoparticle for each analog was determined.

PI3K = PI3K cellular assays; format: cell-based; design: key: Inactive (−); Low (+); Intermediate (++); High (+++); conditions: for PI3K cellular activity: Table 1
[4] = healthy mice, single dose, BYL719 25 or 50 mg/kg, Fi(BYL719) 25 mg/kg, cited from earlier work
[5] = system: S6 ribosomal protein (S6) phosphorylation; conditions: single administration; free BYL719 oral, Fi(BYL719) 25 mg/kg; up to 24 hours; cited from earlier work
[6] = Mouse pharmacokinetics, cassette dosed free drug; format: in vivo; conditions: for MRTiv / BA / MRTpo / Tmax / AUC / concentration at 5 min / clearance / Vd / Cmax: cassette; for concentration at 5 min: read-out: C5min; for clearance: read-out: Cltotal (converted); for Vd: read-out: VDss
From the text: (§1) Mouse PK data for Compound (14) (cassette dosing) for free drug (i.e., not nanoformulated) is tabulated in Table 2 using amorphous material. […] The corresponding rat PK data is tabulated in Table 3, where the results are consistent with mouse PK data.

[7] = cited from earlier work
[8] = 60 consecutive days; BYL719 50 mg/kg/day, Fi(BYL719) 50 mg/kg/week; cited from earlier work
Cal-33 xenografts = conditions: Fi(BYL719) 25 mg/kg twice a week; free BYL719 7 mg/kg/day (50 mg/kg/week); cited from earlier work
[9] = Rat pharmacokinetics, cassette dosed free Compound (14); format: in vivo
From the text: as §1

ERK phosphorylation = conditions: cited from earlier work
[10] = system: B16F10 melanoma lung metastases; conditions: FiDOX 1, 5 and 30 mg/kg; free doxorubicin 6 mg/kg; cited from earlier work
[11] = Table 4, pyridine-modified inhibitors, read-out: PI3Kα (IC50)
[12] = IV 0.1 mg/kg, 1 mL/kg (10-in-One)
[13] = in vivo, IV 0.1 mg/kg, 1 mL/kg (10-in-One), read-out: AUCiv
[14] = in vivo, IV 0.1 mg/kg, 1 mL/kg (10-in-One)
[15] = in vivo, PO 1 mg/kg, 5 mL/kg (5-in-One)
[16] = in vivo, PO 1 mg/kg, 5 mL/kg (5-in-One), read-out: AUCpo
[17] = Table 5, pyrone inhibitors, read-out: PI3Kα (IC50)
[18] = Table 6, proline-modified inhibitors, read-out: PI3Kα (IC50)

Chain of PI3Kα (P42336 whole entry): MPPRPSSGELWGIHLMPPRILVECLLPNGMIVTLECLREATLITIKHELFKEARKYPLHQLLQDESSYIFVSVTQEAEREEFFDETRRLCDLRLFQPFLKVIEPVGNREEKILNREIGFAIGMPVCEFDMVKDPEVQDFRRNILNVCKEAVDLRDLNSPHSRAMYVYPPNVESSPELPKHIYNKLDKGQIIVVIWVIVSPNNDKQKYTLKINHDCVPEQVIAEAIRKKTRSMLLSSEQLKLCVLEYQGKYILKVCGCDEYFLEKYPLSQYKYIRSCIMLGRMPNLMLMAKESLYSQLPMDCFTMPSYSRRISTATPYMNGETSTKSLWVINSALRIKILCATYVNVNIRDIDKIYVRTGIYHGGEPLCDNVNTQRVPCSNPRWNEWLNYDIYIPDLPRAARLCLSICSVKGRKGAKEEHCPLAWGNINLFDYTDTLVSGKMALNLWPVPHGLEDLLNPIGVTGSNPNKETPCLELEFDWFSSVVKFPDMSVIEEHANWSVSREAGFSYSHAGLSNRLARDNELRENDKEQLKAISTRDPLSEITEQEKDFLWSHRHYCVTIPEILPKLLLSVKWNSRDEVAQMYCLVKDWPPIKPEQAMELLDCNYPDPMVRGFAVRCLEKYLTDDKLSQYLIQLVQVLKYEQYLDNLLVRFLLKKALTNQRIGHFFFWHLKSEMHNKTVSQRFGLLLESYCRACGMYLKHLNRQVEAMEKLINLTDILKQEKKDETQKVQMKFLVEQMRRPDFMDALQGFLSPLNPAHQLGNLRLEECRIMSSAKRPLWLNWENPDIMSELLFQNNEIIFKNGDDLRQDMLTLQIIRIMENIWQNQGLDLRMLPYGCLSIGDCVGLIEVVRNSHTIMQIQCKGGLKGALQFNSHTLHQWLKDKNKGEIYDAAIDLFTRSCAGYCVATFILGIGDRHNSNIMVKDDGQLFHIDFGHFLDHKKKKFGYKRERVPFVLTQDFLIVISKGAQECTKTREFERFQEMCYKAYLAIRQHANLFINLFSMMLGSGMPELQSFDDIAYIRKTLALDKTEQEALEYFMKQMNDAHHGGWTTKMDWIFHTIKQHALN
Chain of PI3Kα (P27986 whole entry partner): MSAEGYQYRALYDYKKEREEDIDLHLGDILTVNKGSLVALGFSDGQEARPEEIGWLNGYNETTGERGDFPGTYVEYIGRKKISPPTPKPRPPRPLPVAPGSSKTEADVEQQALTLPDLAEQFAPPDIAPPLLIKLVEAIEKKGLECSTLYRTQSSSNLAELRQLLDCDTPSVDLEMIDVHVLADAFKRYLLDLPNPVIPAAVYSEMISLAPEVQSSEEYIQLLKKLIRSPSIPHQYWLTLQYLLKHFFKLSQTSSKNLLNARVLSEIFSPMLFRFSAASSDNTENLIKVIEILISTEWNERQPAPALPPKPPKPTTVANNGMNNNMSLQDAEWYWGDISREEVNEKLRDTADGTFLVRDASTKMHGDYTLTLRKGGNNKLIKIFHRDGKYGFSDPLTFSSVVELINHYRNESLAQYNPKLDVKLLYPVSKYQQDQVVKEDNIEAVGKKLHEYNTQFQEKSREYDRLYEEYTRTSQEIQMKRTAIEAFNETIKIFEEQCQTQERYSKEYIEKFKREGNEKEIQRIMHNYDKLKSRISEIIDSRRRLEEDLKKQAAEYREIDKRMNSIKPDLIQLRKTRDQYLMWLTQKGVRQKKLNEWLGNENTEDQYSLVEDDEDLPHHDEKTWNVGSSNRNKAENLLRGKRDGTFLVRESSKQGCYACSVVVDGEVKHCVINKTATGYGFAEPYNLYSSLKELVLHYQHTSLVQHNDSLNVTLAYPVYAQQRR

In the case of `CCOC(=O)C(C)c1cc(-c2sc(NC(=O)N3CCC[C@H]3C(N)=O)nc2C)ccn1` (mixture of isomers) [Compound (6)], the IC50 (PI3Kα; [11]) is reported as < 100 nM.

In the case of `Cc1nc(NC(=O)N2CCC[C@H]2C(N)=O)sc1-c1ccnc(C(C)(C)C(F)(F)F)c1` [BYL719, alpelisib, reference compound], the “antitumor activity in H22” value [1] is listed as “transient delay of tumor growth followed by acquired insensitivity to the treatment”, the BA ([2]; 15 mg/kg PO) is listed as 58% and the Cltotal [2] is listed as 10 mL/min/kg. For the same compound, the MRTiv [2] was 2.9 h, the VDss [2] was 1.9 L/kg and the “Nanoparticle drug load, %” value [3] was 22%. The PI3K cellular activity (PI3K) was “(+++)***”, the serum glucose levels [4] was “spike” and the serum insulin levels ([4]; within 24 hours) was “spike”. For the same compound, the “inhibition of S6 phosphorylation in tumor” value [5] was “strong albeit transient inhibition”, the MRTiv [6, 12] was 1.12 h and the BA ([6]; IV 0.1 mg/kg, PO 1 mg/kg) was 71.2%. The MRTpo ([6]; PO 1 mg/kg, 5 mL/kg (5-in-One)) was 2.12 h, the Tmax ([6]; PO 1 mg/kg, 5 mL/kg (5-in-One)) was 1 h and the AUC [6, 13] was 73.9 ng·h/mL. The concentration at 5 min [6, 14] was 56.4 ng/mL, the clearance [6, 14] was 22.9 mL/min/kg and the Vd [6, 14] was 1.54 L/kg. The Cmax [6, 15] was 184 ng/mL, the AUC [6, 16] was 526 ng·h/mL and the “observed half-life in humans” value [7] was 11.5 h. For the same compound, the “serum glucose and insulin levels after chronic treatment” value [8] was “Significantly elevated” and the “antitumor activity in Cal-33” value (Cal-33 xenografts) was “no appreciable antitumor activity”.

For `Cc1nc(NC(=O)N2CCC[C@H]2C(N)=O)sc1-c1ccnc(C(C)(C)C(=O)OC2CCOC2=O)c1` (some centres unmarked) [Compound (1)], the IC50 (PI3Kα; [11]) was < 100 nM.

For `CCOC(=O)CC(C)(C)c1cc(-c2sc(NC(=O)N3CCC[C@H]3C(N)=O)nc2C)ccn1` [Compound (2)], the IC50 (PI3Kα; [11]) was < 100 nM.

For `Cc1nc(NC(=O)N2CCC[C@H]2C(N)=O)sc1-c1ccnc(C(C)(C)C(=O)OC(C)OC(=O)OC2CCCCC2)c1` (some centres unmarked) [Compound (3)], the IC50 (PI3Kα; [11]) was < 100 nM.

In the case of `Cc1nc(NC(=O)N2CCC[C@H]2C(N)=O)sc1-c1ccnc(C(C)(C)C(=O)OCc2oc(=O)oc2C)c1` [Compound (4)], the IC50 (PI3Kα; [11]) is reported as < 100 nM.

For `CCOC(=O)C1(c2cc(-c3sc(NC(=O)N4CCC[C@H]4C(N)=O)nc3C)ccn2)CC1` [Compound (5)], the IC50 (PI3Kα; [11]) was < 100 nM.

For `Cc1nc(NC(=O)N2CCC[C@H]2C(N)=O)sc1-c1ccnc(C(C)(C)C(=O)O)c1` [Compound (7)], the IC50 (PI3Kα; [11]) was < 100 nM.

For `COC(=O)C(C)(C)c1cc(-c2sc(NC(=O)N3CCC[C@H]3C(N)=O)nc2C)ccn1` [Compound (8)], the IC50 (PI3Kα; [11]) was < 100 nM.

For `COC(=O)c1cc(-c2sc(NC(=O)N3CCC[C@H]3C(N)=O)nc2C)ccn1` [Compound (9)], the IC50 (PI3Kα; [11]) was < 100 nM.

For `CCOC(=O)[C@@H]1CCN(C(=O)Nc2nc(C)c(-c3cc(C(C)(C)C(F)(F)F)oc(=O)c3)s2)[C@@H]1C(N)=O` [Compound (10)], the “PI3Kα inhibition in biochemical assay (in words)” value (“PI3Kα inhibition” below) (PI3Kα) was “active” and the IC50 (PI3Kα; [17]) was < 100 nM.

With `CCOC(=O)[C@@H]1C[C@@H](C(N)=O)N(C(=O)Nc2nc(C)c(-c3cc(C(C)(C)C(F)(F)F)oc(=O)c3)s2)C1` [Compound (11)] the “PI3Kα inhibition” value (PI3Kα) was “active” and the IC50 (PI3Kα; [17]) was < 100 nM.

For `CCOC(=O)[C@H]1C[C@@H](C(N)=O)N(C(=O)Nc2nc(C)c(-c3cc(C(C)(C)C(F)(F)F)oc(=O)c3)s2)C1` [Compound (12)], the “PI3Kα inhibition” value (PI3Kα) was “active” and the IC50 (PI3Kα; [17]) was < 100 nM.

With `Cc1nc(NC(=O)N2CCC[C@H]2C(N)=O)sc1-c1cc(C(C)C)oc(=O)c1` [Compound (13)] the IC50 (PI3Kα; [17]) was < 100 nM.

In the case of `Cc1nc(NC(=O)N2CCC[C@H]2C(N)=O)sc1-c1cc(C(C)(C)C(F)(F)F)oc(=O)c1` [Compound (14)], the “Nanoparticle drug load, %” value [3] is reported as 22%, the MRTiv [9, 12] is reported as 0.42 h and the BA ([9]; IV 0.1 mg/kg, PO 1 mg/kg) is reported as 5.9%. The MRTpo ([9]; PO 1 mg/kg, 5 mL/kg (5-in-One)) was 2.1 h, the AUC [9, 13] was 45.1 ng·h/mL and the concentration at 5 min ([9]; in vivo, IV 0.1 mg/kg, 1 mL/kg (10-in-One), read-out: C5min) was 114 ng/mL. It also gave a clearance ([9]; in vivo, IV 0.1 mg/kg, 1 mL/kg (10-in-One), read-out: Cltotal (converted)) of 37 mL/min/kg, a Vd ([9]; in vivo, IV 0.1 mg/kg, 1 mL/kg (10-in-One), read-out: VDss) of 0.932 L/kg and a Cmax [9, 15] of 11.8 ng/mL. For the same compound, the Tmax [9, 15] was 0.5 h, the AUC [9, 16] was 26.9 ng·h/mL and the “efficacy in PI3K cellular assays” value (PI3K) was “(+++)”. For the same compound, the PI3K cellular activity (PI3K) was “(+++)***”, the “mean residence time (in words)” value ([6]; cassette dosing, free drug) was “short mean residence time” and the “oral bioavailability (in words)” value ([6]; cassette dosing, free drug) was “modest oral bioavailability”. The “total clearance (in words)” value ([6]; cassette dosing, free drug) was “high total clearance”, the MRTiv [6, 12] was 0.31 h and the BA ([6]; IV 0.1 mg/kg, PO 1 mg/kg) was 13.5%. It also gave an MRTpo ([6]; PO 1 mg/kg, 5 mL/kg (5-in-One)) of 1.07 h, an AUC [6, 13] of 17.8 ng·h/mL and a concentration at 5 min [6, 14] of 66.4 ng/mL. It also gave a clearance [6, 14] of 96.5 mL/min/kg, a Vd [6, 14] of 1.78 L/kg and a Cmax [6, 15] of 17.1 ng/mL. For the same compound, the AUC [6, 16] was 24 ng·h/mL, the Tmax ([6]; in vivo, PO 1 mg/kg, 5 mL/kg (5-in-One), read-out: Tmax) was 0.42 h and the “PI3Kα inhibition” value (PI3Kα) was “potent inhibitor”. The IC50 (PI3Kα; Table 1, read-out: PI3Kα (IC50)) was < 100 nM, the IC50 (PI3Kα; [17]) was < 100 nM and the IC50 (PI3Kα; refers to Table 5, read-out: PI3Kα inhibitor in biochemical assays) was < 100 nM.

With `Cc1cc(-c2sc(NC(=O)N3CCC[C@H]3C(N)=O)nc2C)cc(=O)o1` [Compound (15)] the IC50 (PI3Kα; [17]) was < 500 nM.

In the case of `CCOC(=O)[C@@H]1CCN(C(=O)Nc2nc(C)c(-c3ccnc(C(C)(C)C(F)(F)F)c3)s2)[C@@H]1C(N)=O` [Compound (20)], the “PI3Kα inhibition” value (PI3Kα) is reported as “good intrinsic PI3Kα potency” and the IC50 (PI3Kα; [18]) is reported as < 100 nM.

For `CCOC(=O)C1CC(C(N)=O)N(C(=O)Nc2nc(C)c(-c3ccnc(C(C)(C)C(F)(F)F)c3)s2)C1` (centres unmarked) [Compound (21)], the “PI3Kα inhibition” value (PI3Kα) was “good intrinsic PI3Kα potency” and the IC50 (PI3Kα; [18]) was < 100 nM.

For `Cn1cnc2c(F)c(Nc3ccc(Br)cc3F)c(C(=O)NOCCO)cc21` [MEK162], the “pERK inhibition in the skin” value (ERK phosphorylation; 4 and 24 hours) is given as “phosphorylation returned in both tissues after 24 hours” and the “pERK inhibition in the tumor” value (ERK phosphorylation; after 24 hours) is given as “phosphorylation returned in both tissues after 24 hours”.

For `COc1cccc2c1C(=O)c1c(O)c3c(c(O)c1C2=O)C[C@@](O)(C(=O)CO)C[C@@H]3O[C@H]1C[C@H](N)[C@H](O)[C@H](C)O1` [doxorubicin], the “tumor burden and survival after a single injection” value [10] is listed as “did not have a significant effect”.
